Measured values from ChEMBL document CHEMBL1268968, “Lupane-type triterpenoids from the steamed leaves of Acanthopanax koreanum and their inhibitory effects on the LPS-stimulated pro-inflammatory cytokine production in bone marrow-derived dendritic cells” (Bioorg Med Chem Lett, 2010).

Columns and labels:
[1] = Antiinflammatory activity in C57BL/6 mouse BMDCs assessed as inhibition of LPS-stimulated IL12 production at 50 uM treated 1 hr before LPS challenge measured 18 hrs post stimulation by ELISA; type: functional, BMDC
[2] = Toxicity in C57BL/6 mouse BMDCs at 50 uM; type: cell-based; details: bmdc
[3] = Antiinflammatory activity in C57BL/6 mouse BMDCs assessed as inhibition of LPS-stimulated TNFalpha production at 50 uM treated 1 hr before LPS challenge measured 18 hrs post stimulation by ELISA; type: functional, BMDC
[4] = Antiinflammatory activity in C57BL/6 mouse BMDCs assessed as inhibition of LPS-stimulated IL6 production at 50 uM treated 1 hr before LPS challenge measured 18 hrs post stimulation by ELISA; type: functional; details: C57BL/6, BMDC

Row | SMILES | inhibition (INH) [1] | Activity [2] | inhibition (INH) [3] | inhibition at 50 µM [4]
1 | C=C(C)[C@@H]1CC[C@]2(C(=O)O[C@@H]3O[C@H](CO[C@@H]4O[C@H](CO)[C@@H](O[C@H]5O[C@@H](C)[C@H](O)[C@@H](O)[C@H]5O)[C@H](O)[C@H]4O)[C@@H](O)[C@H](O)[C@H]3O)CC[C@]3(C)[C@H](C[C@@H](O)[C@@H]4[C@@]5(C)CC[C@@H](O)[C@@](C)(C=O)[C@@H]5CC[C@]43C)[C@@H]12 [ACANKOREOSIDE D] | <50% | Non-toxic | – | –
2 | C=C(C)[C@@H]1CC[C@]2(C(=O)O)CC[C@]3(C)[C@H](C[C@@H](O)[C@@H]4[C@@]5(C)CC[C@@H](O)C(C)(C)[C@@H]5CC[C@]43C)[C@@H]12 [IMPRESSIC ACID] | 62.6% | Non-toxic | 67.9% | –
3 | C=C(C)[C@@H]1CC[C@]2(C(=O)O)CC[C@]3(C)[C@H](C[C@@H](O)[C@@H]4[C@@]5(C)CC[C@@H](O[C@@H]6O[C@H](CO)[C@@H](O)[C@H](O)[C@H]6O)C(C)(C)[C@@H]5CC[C@]43C)[C@@H]12 | <50% | Non-toxic | – | –
4 | C=C(C)[C@@H]1CC[C@]2(C(=O)O[C@@H]3O[C@H](CO[C@@H]4O[C@H](CO)[C@@H](O)[C@H](O)[C@H]4O)[C@@H](O)[C@H](O)[C@H]3O)CC[C@]3(C)[C@H](CC[C@@H]4[C@@]5(C)CC[C@@H](O)[C@@](C)(C(=O)O)[C@@H]5CC[C@]43C)[C@@H]12 | <50% | Non-toxic | – | –
5 | C=C(C)[C@@H]1CC[C@]2(C(=O)O[C@@H]3O[C@H](CO[C@@H]4O[C@H](CO)[C@@H](O[C@@H]5O[C@@H](C)[C@H](O)[C@@H](O)[C@H]5O)[C@H](O)[C@H]4O)[C@@H](O)[C@H](O)[C@H]3O)CC[C@]3(C)[C@H](CC[C@@H]4[C@@]5(C)CC[C@@H](O)[C@@](C)(C(=O)O)[C@@H]5CC[C@]43C)[C@@H]12 [ACANKOREOSIDE A] | <50% | Non-toxic | – | –
6 | C[S+]([O-])c1ccc(-c2nc(-c3ccc(F)cc3)c(-c3ccncc3)[nH]2)cc1 (centres undefined) [SB-203580] | 84.3% | – | – | –
7 | C=C(C)[C@@H]1CC[C@]2(C(=O)O)CC[C@]3(C)[C@H](C[C@@H](O)[C@@H]4[C@@]5(C)CC[C@@H](O)[C@@](C)(C=O)[C@@H]5CC[C@]43C)[C@@H]12 | 57.6% | Non-toxic | – | –
8 | COC(OC)[C@H](C)[C@@H]1CC[C@]2(C(=O)O)CC[C@]3(C)[C@H](CC[C@@H]4[C@@]5(C)CC[C@@H](O)[C@@](C)(C(=O)O)[C@@H]5CC[C@]43C)[C@@H]12 | 94.2% | Non-toxic | 64.7% | 63.6%
9 | C=C(C)[C@@H]1CC[C@]2(C(=O)O[C@@H]3O[C@H](CO[C@@H]4O[C@H](CO)[C@@H](O[C@H]5O[C@@H](C)[C@H](O)[C@@H](O)[C@H]5O)[C@H](O)[C@H]4O)[C@@H](O)[C@H](O)[C@H]3O)CC[C@]3(C)[C@H](C[C@@H](O)[C@@H]4[C@@]5(C)CC[C@@H](O)C(C)(C)[C@@H]5CC[C@]43C)C12 (some centres undefined) [ACANTRIFOSIDE A] | <50% | Non-toxic | – | –
10 | C=C(C)[C@@H]1CC[C@]2(C(=O)O)CC[C@]3(C)[C@H](C[C@@H](O)[C@@H]4[C@@]5(C)CC[C@@H](O)[C@@](C)(CO)[C@@H]5CC[C@]43C)[C@@H]12 | <50% | Non-toxic | – | –
11 | C=C(C)[C@@H]1CC[C@]2(C(=O)O)CC[C@]3(C)[C@H](CC[C@@H]4[C@@]5(C)CC[C@@H](O)[C@@](C)(C(=O)O)[C@@H]5CC[C@]43C)[C@@H]12 | <50% | Non-toxic | – | –
